Tests used:
HepG2 cells = experiment: PXR, CYP3A4 and MDR1 expression in HepG2 cells; type: cell-based
Description: HepG2 (human hepatoma cell line; ATCC HB-8065, Manassas, VA) and HepaRG (HPRGC10, Thermo Fisher Scientific) cells were maintained in culture as previously described.[47] Experiments were performed between passages 2 and 10. Cell viability, clonogenic activity, and apoptotic cell death were assessed as previously described (see Figure S2).[58],[59] HT29 human colorectal adenocarcinoma cells (ATCC HTB-38) and its mucous-secreting HT29-MTX subclone (Sigma-Aldrich) were used as intestinal cell models. HT29 cells were cultured in RPMI (Invitrogen; Life Technologies) containing 10% FBS (v/v) and 1% (v/v) L-glutamine. HT29-MTX cells (from Sigma-Aldrich) were cultured in DMEM supplemented with 2 mM glutamine, 1% nonessential amino acids, and 10% FBS. Cells were maintained at 37 C in a humidified 5% (v/v) CO2 atmosphere chamber and were used between passages 10 and 20.
Cells were harvested and lysed in ice-cold cell lysis buffer (Cell Signaling Technology) and 20 μL/mL protease inhibitor cocktail (Roche). Murine tissues (10 mg each) were weighed and resuspended in 300 μL of PBS supplemented with NP40 (1:50) and a cocktail of protease inhibitors (Pierce, Thermo Fisher Scientific). After preliminary homogenation in a 1-mL potter, sonication was performed in ice (3 cycles of 15 s each with 1 min intervals). After incubation in ice for 1 h and centrifugation (12 000 rpm for 20 min at 4 °C), the supernatant was recovered, and total proteins were quantified by the BCA assay kit (Pierce, Thermo Fisher Scientific). […] The band intensity was analyzed using Gel Pro analyzer Software. […]
RNA was extracted using the RNeasy Plus Kit (QIAGEN, Valencia, CA) and quantified with Implen NanoPhotometer (GmbH Germany), and cDNA synthesis was carried out using SuperScript IV (Thermo Fisher Scientific, MA). […]

[1] = molecular target: T1, hPXR ligand binding domain (LBD) (Homo sapiens, UniProt O75469); experiment: Isothermal titration calorimetry, binding to His-tagged hPXR LBD; conditions: ITC, 37 °C, pH 7.5
T1 construct: made in house; host or cells: E. coli BL21-Gold
T1 sequence (O75469 146-433 limits assumed): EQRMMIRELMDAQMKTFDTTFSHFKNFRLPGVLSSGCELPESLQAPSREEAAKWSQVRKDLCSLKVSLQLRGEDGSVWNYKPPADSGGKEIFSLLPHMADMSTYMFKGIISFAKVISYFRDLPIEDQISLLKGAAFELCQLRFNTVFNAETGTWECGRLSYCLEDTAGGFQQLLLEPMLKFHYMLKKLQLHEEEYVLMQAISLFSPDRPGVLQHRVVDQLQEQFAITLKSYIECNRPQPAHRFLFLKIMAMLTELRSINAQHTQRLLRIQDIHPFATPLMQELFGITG
Text: To obtain direct proof of interaction with the hPXR ligand binding domain (LBD), we performed an isothermic titration calorimetry (ITC) experiment using His-tagged hPXR LBD protein in solution (Figure 1C). ITC measures the affinity, Ka, the Gibbs energy (ΔG = −RT ln Ka), and the changes in enthalpy, ΔH, and entropy, ΔS, associated with the binding of the FKK compounds (ΔG = −RT ln K = ΔH – TΔS). Enthalpic and entropic contributions to binding affinity define the nature of the forces that drive the binding reaction.[40],[41]
ITC was performed using a VP-ITC microcalorimeter from MicroCal/Malvern Instruments (Northampton, MA). The protein and the ligands (in DMSO, 8% vol/vol final concentration) were prepared in 25 mM Hepes, pH 7.5 with 150 mM NaCl. In all of the experiments, the ligand solution was injected in 10-μL aliquots into the calorimetric cell containing PXR-LBD [3 μM] at 37 °C. The respective concentrations of GA (1), 2, and 5 in the syringe were 60 μM each. The heat evolved upon each injection of the ligands was obtained from the integral of the calorimetric signal. The heat associated with binding to PXR-LBD in the cell was obtained by subtracting the heat of dilution from the heat of reaction.

hPXR = molecular target: T2, hPXR (Homo sapiens, UniProt O75469); experiment: AlphaScreen coactivator recruitment assay, PXR; type: biochemical; conditions: 10 μM compound concentration
T2 construct: GST-LBD
T2 sequence (O75469 146-433 limits assumed): T1 sequence (O75469 146-433 limits assumed)

C/C(=C\CC/C(C)=C/CC[C@]1(C)CCc2cc(O)cc(C)c2O1)CC/C=C(\C)C(=O)O [GA (1), (2E,6E,10E)-13-[(2R)-6-hydroxy-2,8-dimethyl-chroman-2-yl]-2,6,10-trimethyltrideca-2,6,10-trienoic acid]
MDR1 gene expression (HepG2 cells; HepG2, 1 to 50 μM): increased in a dose–dose-dependent manner | CYP3A4 protein and mRNA expression (HepG2 cells; HepG2, 24 h, 1 and 25 μM): increased in a dose–dose-dependent manner | PXR protein expression (HepG2 cells; HepG2, 24 h, 1 and 25 μM): increased in a dose–dose-dependent manner | N (stoichiometry) [1]: 0.9 | ΔG [1]: -8.8 kcal/mol | ΔH [1]: -6.4 kcal/mol | −TΔS [1]: -2.4 kcal/mol | ΔG ([1]; listed as 1): -8.8 kcal/mol | ΔH ([1]; listed as 1): -6.4 kcal/mol | PXR agonist activity (AlphaScreen, single concentration) (hPXR): significant PXR agonist activity
